Tested on: SMN2 mRNA in GM03813 SMA patient cells
Assay: Endogenous SMN2 mRNA RT-qPCR splicing assay in cultured cells
Format: cell-based, human
Settings: Type 1 SMA patient fibroblasts, increasing concentrations, 24 hr, versus vehicle (FIG. 4)
Procedure: The reverse transcription-quantitative PCR-based (RT-qPCR) assay is used to quantify the levels of the full length and Δ7 SMN2 mRNA in primary cells and cell lines containing the SMN2 gene treated with a test compound.
Protocol. GM03813 SMA patient cells (5,000 cells/well) are seeded in 200 μL of cell culture medium (DMEM plus 10% FBS) in 96-well flat-bottom plates and the plate is immediately swirled to ensure proper dispersal of cells, forming an even monolayer of cells. Cells are allowed to attach for at least 4-6 hrs. Test compounds are serially diluted 3.16-fold in 100% DMSO to generate a 7-point concentration curve. A solution of test compound (1 μL, 200× in DMSO) is added to each test well and 1 μL DMSO is added to each control well. The plate is incubated for 24 hrs in a cell culture incubator (37° C., 5% CO2, 100% relative humidity). The cells are then lysed in Cells-To-Ct lysis buffer and the lysate is stored at −80° C.
SMN2-specific spliced products and GAPDH mRNA are identified using the following primers and probes in Table 5. Primer SMN FL Forward B (SEQ ID NO. 7) hybridizes to a nucleotide sequence in exon 7 (nucleotide 32 to nucleotide 54) and exon 8 (nucleotide 1 to nucleotide 4), primer SMN Δ7 Forward B (SEQ ID NO. 8) hybridizes to a nucleotide sequence in exon 6 (nucleotide 87 to nucleotide 111) and exon 8 (nucleotide 1 to nucleotide 3), primer SMN Reverse B (SEQ ID NO. 9) hybridizes to a nucleotide sequence in exon 8 (nucleotide 39 to nucleotide 62), probe SMN Probe B (SEQ ID NO. 10) hybridizes to a nucleotide sequence in exon 8 (nucleotide 7 to nucleotide 36). These primers and probes hybridize to nucleotide sequences common to human SMN1 and SMN2 mRNA. Since the SMA patient cells used in Example 3 contain only the SMN2 gene, RT-qPCR can quantify only SMN2 full-length and Δ7 mRNA.
The SMN forward and reverse primers are used at final concentrations of 0.4 μM. The SMN probe is used at a final concentration of 0.15 μM. GAPDH primers are used at final concentrations of 0.1 μM and the probe at 0.075 μM. […]
The increase of SMN2 FL and decrease in SMN2 Δ7 mRNA relative to those in cells treated with vehicle control are determined from real-time PCR data using a modified ΔΔCt method (as described in Livak and Schmittgen, Methods, 2001, 25:402-8). The amplification efficiency (E) is calculated from the slope of the amplification curve for SMN2 FL, SMN2 Δ7, and GAPDH individually. The abundances of SMN2 FL, SMN2 Δ7, and GAPDH are then calculated as (1+E)^−Ct, where Ct is the threshold value for each amplicon. […]

SMILES | SMN2 FL mRNA | SMN2 Δ7 mRNA
COc1ccc(-c2cc(=O)n3cc(N4CCNCC4)ccc3n2)cc1OC [Cpd 6, 2-(3,4-dimethoxyphenyl)-7-(piperazin-1-yl)-4H-pyrido[1,2-a]pyrimidin-4-one] | progressively more SMN2 FL mRNA | less SMN2 Δ7 mRNA
Cc1cn2nc(-c3cc(=O)n4cc(N5CCN(C)CC5)ccc4n3)cc2c(C)n1 [Cpd 170, 2-(4,6-dimethylpyrazolo[1,5-a]pyrazin-2-yl)-7-(4-methylpiperazin-1-yl)-4H-pyrido[1,2-a]pyrimidin-4-one] | progressively more SMN2 FL mRNA | less SMN2 Δ7 mRNA

— patent publication US11753407B2, “Compounds for treating spinal muscular atrophy” (PTC Therapeutics, Inc., priority 2012, dated 2023)
